{"source": "paper PMC11866022", "about": "“Long-Chain Cyclic Arylguanidines as Multifunctional Serotonin Receptor Ligands with Antiproliferative Activity” (ACS Omega, 2025)", "key": {"CYP3A4": {"molecular_target": "T1, CYP3A4 (Homo sapiens, UniProt P08684)", "T1 construct": "purchased Promega", "T1 sequence (P08684 whole entry, canonical isoform)": "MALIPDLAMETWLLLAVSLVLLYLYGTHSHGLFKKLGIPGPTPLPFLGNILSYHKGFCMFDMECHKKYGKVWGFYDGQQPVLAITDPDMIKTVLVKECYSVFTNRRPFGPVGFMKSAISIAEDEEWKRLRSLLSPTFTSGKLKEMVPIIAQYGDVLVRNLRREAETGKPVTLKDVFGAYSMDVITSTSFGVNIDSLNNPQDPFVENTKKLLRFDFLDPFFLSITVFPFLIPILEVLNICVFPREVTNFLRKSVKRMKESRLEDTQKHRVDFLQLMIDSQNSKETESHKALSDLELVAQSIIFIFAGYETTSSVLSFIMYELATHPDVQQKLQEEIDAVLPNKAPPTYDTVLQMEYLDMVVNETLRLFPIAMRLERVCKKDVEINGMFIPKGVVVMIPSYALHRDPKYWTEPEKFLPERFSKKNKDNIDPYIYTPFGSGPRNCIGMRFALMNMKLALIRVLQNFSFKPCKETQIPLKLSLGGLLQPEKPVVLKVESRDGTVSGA", "assay": "P450-Glo assay, CYP3A4", "assay_type": "in vitro ADME", "from_the_text": "In order to evaluate excretion, we examined the effect on the activity of two cytochrome P-450 isoforms. Inhibition of their activity may lead to the occurrence of drug–drug interactions."}, "Danio rerio [1]": {"system": "Danio rerio", "details": "in vivo", "description": "Two compounds, PP 10 and PP 15, were tested for cardiotoxicity in the Danio rerio experimental model (OECD 236 test). […]. To assess potential neurotoxic effects, locomotor activity was examined in the Danio rerio model. Zebrafish larvae’s response to light and dark transitions serves as a useful method for detecting neurotoxicity. […] In our experiment, we switched from light to dark conditions, as zebrafish larvae are known to avoid light and seek darker areas. This behavior helps them evade predators and maintain ideal environmental conditions. […]\nFigure 5 A: In vivo toxicity assessment of PP 10 and PP 15 in Danio rerio using the maximum tolerated concentration (MTC) toxicity test. B: Locomotor activity under light conditions, quantified as the distance (in cm) traveled per minute by 5-day postfertilization (dpf) Danio rerio larvae. C: Locomotor activity under dark conditions, with the distance (in cm) traveled per minute recorded for 5-dpf larvae. D: Comparison of activity during the transition from light to dark conditions. E3 refers to the fish embryo growth medium. […]\nA locomotor activity test was conducted on zebrafish larvae ([…]). […] The distance traveled by the larvae was measured in both light and dark conditions using EthoVision XT15 software, and the mean distance per minute was calculated for each condition to assess locomotor activity. […]"}, "Danio rerio [2]": {"system": "Danio rerio", "assay": "Fish embryo toxicity test (OECD 236)", "assay_type": "in vivo", "details": "Danio rerio embryos, 96 h of exposure", "description": "Two compounds, PP 10 and PP 15, were tested for cardiotoxicity in the Danio rerio experimental model (OECD 236 test). […] To assess potential neurotoxic effects, locomotor activity was examined in the Danio rerio model. Zebrafish larvae’s response to light and dark transitions serves as a useful method for detecting neurotoxicity. […] In our experiment, we switched from light to dark conditions, as zebrafish larvae are known to avoid light and seek darker areas. This behavior helps them evade predators and maintain ideal environmental conditions.\nFigure 4 A: Toxicity of PP 10 and PP 15in vivo in the Danio reiro embryo toxicity test. […] Cardiotoxicity of compounds B: PP 10 and C: PP 15 was evaluated by measuring the heart rate (beats per minute) in 5-dpf Danio rerio larvae, maintained in the E3 fish embryo growth medium. Statistical analysis was performed using GraphPad Prism 10.0.0, with one-way ANOVA followed by Dunnett’s comparison test (*p < 0.05, compared to the negative control E3).\nThe toxicity of compounds was evaluated using two tests: the fish embryo toxicity (FET) test and neurotoxicity assessment.[53] […] Acute toxicity was assessed by monitoring signs such as coagulation of fertilized eggs, somite formation absence, tailbud separation, and lack of heartbeat. The LD50 value was calculated, and cardiovascular effects were monitored through heartbeat observations."}, "5-HT7 [3]": {"molecular_target": "T2, 5-HT7 (Homo sapiens, UniProt P34969)", "T2 construct": "expressed in transfected cells; host or cells: HEK293", "T2 sequence (P34969 whole entry, species assumed)": "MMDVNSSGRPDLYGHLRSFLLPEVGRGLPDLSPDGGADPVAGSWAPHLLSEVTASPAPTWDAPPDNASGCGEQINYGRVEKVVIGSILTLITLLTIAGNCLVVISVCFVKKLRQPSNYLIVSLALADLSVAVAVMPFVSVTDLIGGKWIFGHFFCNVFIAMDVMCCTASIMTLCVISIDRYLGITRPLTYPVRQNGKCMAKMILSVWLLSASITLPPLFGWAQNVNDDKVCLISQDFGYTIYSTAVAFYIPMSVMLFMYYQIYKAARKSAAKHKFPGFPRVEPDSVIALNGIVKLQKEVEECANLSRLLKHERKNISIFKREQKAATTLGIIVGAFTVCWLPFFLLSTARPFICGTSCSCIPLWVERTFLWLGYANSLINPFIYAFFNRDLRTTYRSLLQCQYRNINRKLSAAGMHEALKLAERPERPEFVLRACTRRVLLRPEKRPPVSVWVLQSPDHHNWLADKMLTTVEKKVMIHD", "assay": "Functional cAMP assay (LANCE Ultra), 5-HT7", "assay_type": "cell-based", "description": "Their functional activity was also evaluated by assessing their ability to inhibit agonist-induced cAMP production in HEK293 cells (Table 3). Extended radioisotope tests were aimed at detecting potential affinity for other aminergic receptors, whose role in cancer treatment may be important. Functions were tested for all receptors. The essence of functional tests results from the fact that serotonin stimulates tumor progression. Therefore, the ligand should have the potential to reduce its concentration, i.e., act as an antagonist.[39]\nThe detailed procedure is presented in previous publications.[53] The functional activity of the compounds was assessed using the LANCE Ultra cAMP detection kit (PerkinElmer). […] For other receptors (5-HT7R, 5-HT1AR, and 5-HT6R), 5-CT was used at 10, 100, and 1000 nM, respectively. Each compound was tested in triplicate across eight concentrations. The inhibitory constant (Kb) for each antagonist was calculated using the Cheng–Prusoff equation."}, "5-HT7 [4]": {"molecular_target": "T2, 5-HT7", "assay": "Functional cAMP assay (LANCE Ultra), 5-HT7", "assay_type": "cell-based", "details": "Table 3, unit inferred, agonist mode"}, "cancer cell lines": {"system": "cancer cell lines", "assay": "Antiproliferative activity over the tested cancer cell lines", "assay_type": "cell-based", "details": "Homo sapiens; range or bound over several cell lines", "description": "The chosen group of ligands was further examined for their ability to inhibit proliferation across multiple cancer cell lines related to the CNS system (1321N1, U87MG, LN-229, and U-251). These cell lines were characterized by different mutation profiles, the main one being the variable status of the p53 protein. In detail, U87MG cells have a wild-type p53 protein, while astrocytoma and the rest of GBM cells harbor mutated p53 protein. Additional assays were performed on MCF7 breast cancer and AsPC-1 pancreatic cancer cells. The wide range of tested lines was aimed at screening the anticancer potential of the tested compounds. The first represents one of the most common and the second one of the most aggressive cancers in the world. Comparing the activity of compounds on GBM cells to other types of cancer may reveal their selectivity and usefulness in targeted therapies. The cytotoxicity of the compounds on normal human astrocytes (NHA) and Feline catus astrocyte (PG-4) was determined. Tests on normal lines serve to verify the potential toxicity of the tested compounds on healthy cells. Due to the targeting of CNS tumors, astrocytes were selected as normal lines.\nThe detailed procedure is presented in previous publications.[53] […] Cell viability was assessed using the MTS assay, and the inhibitory concentration (IC50) was calculated using GraphPad Prism 8.0. […]"}}}
{"smiles": "CC1NC(NCCCCCCNS(=O)(=O)c2cccc3ccccc23)=Nc2ccccc21", "note": "(stereo not shown) [PP 10, N-{6-[(4-Methyl-3,4-dihydroquinazolin-2-yl)amino]hexyl}naphthalene-1-sulfonamide]", "values": [{"measurement": "impact on the activity of CYP3A4", "setting": "CYP3A4", "result": "weakest interaction"}, {"measurement": "neurotoxic effects (locomotor activity, light to dark)", "setting": "Danio rerio [1]", "result": "minimal neurotoxic effects"}, {"measurement": "LD50 / LC50 (Figure 4)", "setting": "Danio rerio [2]", "result": 15.34, "unit": "µg/mL"}, {"measurement": "Kb", "setting": "5-HT7 [3]; Table 3, unit inferred, cAMP, antagonist mode, 5-CT", "result": 236, "unit": "nM"}, {"measurement": "function at 5-HT7", "setting": "5-HT7 [3]; in words", "result": "antagonist"}]}
{"smiles": "CC1NC(NCCCCCCNS(=O)(=O)c2c(Cl)ccc3ccccc23)=Nc2ccccc21", "note": "(stereo not shown) [PP 13, 2-Chloro-N-{6-[(4-methyl-3,4-dihydroquinazolin-2-yl)amino]hexyl}naphthalene-1-sulfonamide]", "values": [{"measurement": "EC50", "setting": "5-HT7 [4]", "result": 53, "unit": "nM"}]}
{"smiles": "O=S1(=O)c2cccc3cccc(c23)N1CCCCCCNC1=Nc2ccccc2CN1", "note": "[PP 24, 3-{6-[(3,4-Dihydroquinazolin-2-yl)amino]hexyl}-2λ^6-thia-3-azatricyclo[6.3.1.0^4,^12]dodeca-1(11),4(12),5,7,9-pentaene-2,2-dione]", "values": [{"measurement": "IC50", "setting": "cancer cell lines", "result": "7400 to 18300", "unit": "nM"}]}
{"smiles": "O=S(=O)(NCCCCCCNc1ncc2ccccc2n1)c1cccc2ccccc12", "note": "[PP 15, N-{6-[(Quinazolin-2-yl)amino]hexyl}naphthalene-1-sulfonamide]", "values": [{"measurement": "impact on the activity of CYP3A4", "setting": "CYP3A4", "result": "passive"}, {"measurement": "neurotoxic effects (locomotor activity, light to dark)", "setting": "Danio rerio [1]", "result": "minimal neurotoxic effects"}, {"measurement": "LD50 / LC50 (Figure 4)", "setting": "Danio rerio [2]", "result": 2.147, "unit": "µg/mL"}]}
